Values belong to the compound of their own block, whether it stands above or below them.
Assay: solvent given as SMILES

Compound: CCCCCCOc1ccc(/C=C/c2ccc(N(c3ccc(/C=C/c4ccc(OCCCCCC)cc4)cc3)c3ccc(-c4nc5ccccc5nc4-c4ccc(N(c5ccc(/C=C/c6ccc(OCCCCCC)cc6)cc5)c5ccc(/C=C/c6ccc(OCCCCCC)cc6)cc5)cc4)cc3)cc2)cc1
emission maximum (in C1CCOC1): 518 nm
emission maximum (in Cc1ccccc1): 505 nm

Compound: N#Cc1cccc2cc[nH]c12
emission maximum (in C1CCOC1): 368 nm
emission maximum (in C1COCCO1): 367 nm
emission maximum (in CC#N): 378 nm
emission maximum (in CC(C)O): 380 nm
emission maximum (in CCO): 382 nm
emission maximum (in CO): 387 nm
emission maximum (in CS(C)=O): 391 nm
emission maximum (in O): 400 nm
emission maximum (in OCC(F)(F)F): 391 nm

Compound: Cc1ccc(-c2c3ccc([nH]3)c3nc(c(-c4ccc(C#N)cc4)c4ccc([nH]4)c4ccc([nH]4)c(-c4ccc(C)cc4)c4ccc2o4)C=C3)cc1
emission maximum (in C1CCOC1): 730 nm
emission maximum (in Cc1ccccc1): 722 nm
emission maximum (in c1ccccc1): 722 nm

Compound: CCCCC1(CCCC)c2cc(C#Cc3ccc4ccc5cccc6ccc3c4c56)ccc2-c2ccc(C#Cc3ccc4ccc5cccc6ccc3c4c56)cc21
emission maximum (in C1CCCCC1): 433 nm
emission maximum (in C1CCOC1): 437 nm
emission maximum (in CC#N): 433 nm
emission maximum (in CCOC(C)=O): 433 nm
emission maximum (in CN(C)C=O): 441 nm
emission maximum (in Cc1ccccc1): 438 nm
emission maximum (in ClC(Cl)Cl): 439 nm
emission maximum (in ClCCl): 439 nm

Compound: Oc1ccc2ccccc2c1C1Nc2cccc3cccc(c23)N1
emission maximum (in CC#N): 540 nm
emission maximum (in CO): 476 nm
emission maximum (in CS(C)=O): 528 nm
emission maximum (in Cc1ccccc1): 468 nm

Compound: CN(C)c1ccc(/C=C/c2nc3c4ccccc4c4ccccc4c3[nH]2)cc1
emission maximum (in C1CCOC1): 463 nm
emission maximum (in C1COCCO1): 436 nm
emission maximum (in CC1CCCCC1): 430 nm
emission maximum (in CC#N): 476 nm
emission maximum (in CCOC(C)=O): 460 nm
emission maximum (in CCOCC): 448 nm
emission maximum (in CN(C)C=O): 478 nm
emission maximum (in COC(C)=O): 471 nm
emission maximum (in CS(C)=O): 480 nm
emission maximum (in Cc1ccccc1): 436 nm
emission maximum (in ClC(Cl)Cl): 467 nm

Compound: COc1ccc(-c2sc3c(-c4ccc(OC)cc4)c4n(c3c2-c2ccc(OC)cc2)[B-](F)(F)[N+]2=Cc3c(-c5ccc(OC)cc5)c5sc(-c6ccc(OC)cc6)c(-c6ccc(OC)cc6)c5n3[B-](F)(F)[N+]2=C4)cc1
emission maximum (in CC#N): 641 nm
emission maximum (in CCCCCC): 630 nm
emission maximum (in CN(C)C=O): 654 nm
emission maximum (in Cc1ccccc1): 649 nm
emission maximum (in ClCCl): 648 nm

Compound: CCCCCCc1cc2/c(=C(\C#N)C(=O)OC)s/c(=c3/s/c(=C(/C#N)C(=O)OC)c4cc(CCCCCC)sc34)c2s1
emission maximum (in Cc1ccccc1): 605 nm

Compound: c1ccc2c(c1)-c1ccccc1C21c2ccccc2N(c2ccc(-c3nc([C@]45CC6CC(C[C@@H](C6)C4)C5)nc([C@]45C[C@H]6C[C@@H](C[C@H](C6)C4)C5)n3)cc2)c2ccccc21
emission maximum (in CC(C)(C)c1ccc(-n2c3ccc([Si](c4ccccc4)(c4ccccc4)c4ccccc4)cc3c3cc([Si](c4ccccc4)(c4ccccc4)c4ccccc4)ccc32)cc1): 448.69 nm
emission maximum (in Cc1ccccc1): 454.71 nm

Compound: C(=C\c1nc(/C=C/c2ccc(N(c3ccccc3)c3ccccc3)cc2)cc(/C=C/c2ccc(N(c3ccccc3)c3ccccc3)cc2)n1)/c1ccccc1
emission maximum (in C1CCOC1): 520 nm
emission maximum (in CC#N): 591 nm
emission maximum (in CC(C)=O): 563 nm
emission maximum (in CCCCCCC): 464 nm
emission maximum (in CS(C)=O): 596 nm
emission maximum (in Cc1ccccc1): 482 nm
emission maximum (in ClCCl): 551 nm

Compound: CN(C)c1ccc(C(=O)Nc2ccc(Cl)cc2)cc1
emission maximum (in C1CCCCC1): 435 nm
emission maximum (in C1CCOC1): 490 nm
emission maximum (in CC#N): 498 nm
emission maximum (in CCOCC): 481 nm

Compound: c1ccc(C2=C(c3ccccc3)c3cccc4c3c(cc3nc5c(-c6ccccc6)ccc(-c6ccccc6)c5nc34)O2)cc1
emission maximum (in ClCCl): 551 nm

Compound: COc1ccc(-c2nc3c(c4c2-c2ccccc2CC4)-c2ccccc2CC3)cc1
emission maximum (in C1CCOC1): 420 nm
emission maximum (in CC#N): 416 nm
emission maximum (in CCCCCC): 408 nm
emission maximum (in CCOC(C)=O): 425 nm
emission maximum (in CO): 428 nm
emission maximum (in CS(C)=O): 415 nm
emission maximum (in Cc1ccccc1): 419 nm
emission maximum (in ClCCl): 424 nm

Compound: Cc1ccc2c(CC(=O)NN)coc2c1
emission maximum (in C1CCOC1): 400 nm
emission maximum (in CC#N): 397 nm
emission maximum (in CC(C)=O): 402 nm
emission maximum (in CCCCO): 398 nm
emission maximum (in CCCO): 394 nm
emission maximum (in CCO): 397 nm
emission maximum (in CCOC(C)=O): 390 nm
emission maximum (in CN(C)C=O): 412 nm
emission maximum (in CO): 391 nm
emission maximum (in ClCCl): 399 nm

Compound: CC1(C)c2ccccc2N(c2ccc(-c3ccc(C#N)c(C#N)n3)cc2)c2ccccc21
emission maximum (in Cc1ccccc1): 562 nm
emission maximum (in N#Cc1ccc2c(c1)c1ccccc1n2-c1cccc(-n2c3ccccc3c3ccccc32)c1): 550 nm

Compound: CN(c1ccccc1)c1ccc(-c2ccc(-c3ccc(N(C)c4ccccc4)cc3)c3nc(-c4ccccc4)c(-c4ccccc4)nc23)cc1
emission maximum (in C1CCOC1): 638 nm
emission maximum (in CC#N): 659 nm
emission maximum (in CCCCCC): 598 nm
emission maximum (in CN(C)C=O): 661 nm
emission maximum (in Cc1ccccc1): 627 nm
emission maximum (in ClC(Cl)Cl): 640 nm

Compound: C=C(C)C(CN1C(=O)c2cccc3c2c(cc2nc(C)oc23)C1=O)OO (stereo not drawn)
emission maximum (in CCO): 412 nm

Compound: N#Cc1c[nH]c2ccccc12
emission maximum (in C1CCOC1): 314 nm
emission maximum (in C1COCCO1): 305 nm
emission maximum (in CC#N): 313 nm
emission maximum (in CC(C)O): 315 nm
emission maximum (in CCO): 314 nm
emission maximum (in CO): 314 nm
emission maximum (in CS(C)=O): 316 nm
emission maximum (in O): 320 nm
emission maximum (in OCC(F)(F)F): 314 nm

Compound: c1ccc2c(c1)Sc1ccccc1N2c1ccc2c(c1)C1(c3ccccc3-c3ccccc31)c1cc(N3c4ccccc4Sc4ccccc43)ccc1-2
emission maximum (in Cc1ccccc1): 498 nm

Compound: COc1ccc2c3c(c4ccc(OC)cc4c2c1)=[N+]1C(=C(c2c(C)cc(C)cc2C)c2cc4c5ccc(OC)cc5c5cc(OC)ccc5c4n2[B-]1(F)F)C=3
emission maximum (in C1CCCCC1): 700 nm
emission maximum (in C1CCOC1): 712 nm
emission maximum (in CC#N): 712 nm
emission maximum (in Cc1ccccc1): 712 nm
emission maximum (in ClCCl): 711 nm

Compound: COCCOCCOCCOCC(COCCOCCOCCOC)Oc1cc(/C=C/c2ccc(C=C(C#N)C#N)cc2)c(OC(COCCOCCOCCOC)COCCOCCOCCOC)cc1/C=C/c1ccc(C=C(C#N)C#N)cc1
emission maximum (in ClCCl): 596 nm

More lines, now with the values ahead:

emission maximum (in O): 463 nm
Compound: CC(=O)Nc1ccc2c(c1)c(=O)c1cc(NC(C)=O)ccc1n2CCCCCC(=O)O

emission maximum (in CS(C)=O): 585 nm
Compound: CCCCN1/C(=C/C=C/C2=[N+](C)c3ccccc3C2(C)C)C(C)(C)c2cc(OC)ccc21

emission maximum (in ClCCl): 545 nm
Compound: CCCCN1C(=O)C2=C(c3ccc(-c4ccccc4)cc3)NC(=O)C2=C1c1ccc(-c2ccccc2)cc1

emission maximum (in CC#N): 513 nm
emission maximum (in CC(C)O): 511.01 nm
emission maximum (in CCO): 510 nm
emission maximum (in CO): 509.01 nm
emission maximum (in NC=O): 519 nm
emission maximum (in O): 511.01 nm
emission maximum (in OC(C(F)(F)F)C(F)(F)F): 506 nm
emission maximum (in OCC(F)(F)F): 508 nm
emission maximum (in OCCO): 512.01 nm
Compound: O=S(=O)([O-])c1cc([O-])c2ccc3c(S(=O)(=O)[O-])cc(S(=O)(=O)[O-])c4ccc1c2c34

emission maximum (in CC#N): 741 nm
Compound: CC1=[N+]2C(=C(C3=CC4OCCOCCOCCOCCOC4C=C3)c3c4ccccc4c(/C=C/c4ccc(N(C)C)cc4)n3[B-]2(F)F)c2ccccc21 (stereo not drawn)

emission maximum (in ClCCl): 375 nm
Compound: C[Si]1(C)c2ccc(C#Cc3ccccc3)cc2C=Cc2cc(C#Cc3ccccc3)ccc21

emission maximum (in ClC(Cl)Cl): 485 nm
Compound: CC(C)c1cccc(C(C)C)c1-n1c(=O)c2ccc3c4ccc5c(=O)n(-c6c(C(C)C)cccc6C(C)C)c(=O)c6cc7c(-c8ccccn8)nc8cc(c1=O)c2c3c8c7c4c56

emission maximum (in ClCCl): 366 nm
Compound: c1ccc2c(c1)ccc1c3ccccc3ccc21

emission maximum (in CC#N): 532 nm
Compound: Cc1ccc(-c2ccc(/C=C/c3ccc(N(C)C)cc3)cn2)nc1

emission maximum (in C1CCOC1): 564 nm
emission maximum (in CN1CCCC1=O): 592 nm
emission maximum (in CN(C)C=O): 576 nm
Compound: O=C1c2ccc3c4c(Oc5ccccc5)cc5c6c(ccc(c7c(Oc8ccccc8)cc(c2c37)C(=O)N1c1ccc(O)cc1)c64)C(=O)N(c1ccc(O)cc1)C5=O

emission maximum (in C1CCCCC1): 536 nm
emission maximum (in CC#N): 638 nm
emission maximum (in CCO): 686 nm
emission maximum (in c1ccccc1): 570 nm
Compound: CNc1cccc2c1-c1ccccc1C2=O

emission maximum (in C1CCCCC1): 645 nm
emission maximum (in CCOC(C)=O): 675 nm
Compound: CC1=[N+]2C(=C(c3ccc4c(c3)Cc3ccccc3-4)c3ccc(C)n3[B-]2(F)F)C=C1c1cc2n(c1)[B-](F)(F)[N+]1=CC=CC1=C2c1c(C)cc(C)cc1C

emission maximum (in O): 500 nm
Compound: CC[n+]1c(-c2ccccc2)c2cc(NC(N)=[NH2+])ccc2c2ccc(NC(N)=[NH2+])cc21

emission maximum (in ClC(Cl)Cl): 473 nm
Compound: CCCC1(CCC)c2cc(C=C(C#Cc3ccccc3)C#Cc3ccccc3)ccc2-c2ccc(C=C(C#Cc3ccccc3)C#Cc3ccccc3)cc21

emission maximum (in ClCCl): 461 nm
Compound: CC(C)(C)c1ccc(-c2cc(-c3ccc(-c4cc(-c5ccc(C(C)(C)C)cc5)c(C(=O)N5CCCCC5)s4)s3)sc2C(=O)N2CCCCC2)cc1

emission maximum (in ClCCl): 463 nm
Compound: COc1cc(/C=C/c2ncc(-c3ccncc3)o2)cc(OC)c1OC

emission maximum (in CS(C)=O): 532 nm
emission maximum (in ClC(Cl)Cl): 474 nm
Compound: CCCCn1cc(/C=C/c2cc(=O)oc3cc(C)ccc23)c2ccccc21

emission maximum (in ClC(Cl)Cl): 475 nm
Compound: CCN(CC)c1ccc2cc(-c3ccc(-c4ccc5ccc6c(-c7ccc(-c8cc9ccc(N(CC)CC)cc9oc8=O)cc7)ccc7ccc4c5c76)cc3)c(=O)oc2c1

emission maximum (in ClC(Cl)Cl): 643 nm
Compound: F[B-]1(F)n2c(ccc2-c2cccs2)C(c2ccc(Br)cc2)=C2C=CC(c3cccs3)=[N+]21

emission maximum (in C1CCCCC1): 360 nm
Compound: CCC(C)(C)c1ccc(-c2ccc3c(c2)C(CCOC)(CCOC)c2cc(C(C)(C)CC)ccc2-3)cc1

emission maximum (in ClCCl): 415 nm
Compound: C[Si]1(C)c2cc(-c3cccs3)ccc2C=Cc2ccc(-c3cccs3)cc21

emission maximum (in C1CCOC1): 393 nm
Compound: Cc1cc(C)c(C2=C(c3c(C)sc(-c4ccc(-c5nc(-c6ccccc6)c(-c6ccccc6)[nH]5)cc4)c3C)C(F)(F)C(F)(F)C2(F)F)s1

emission maximum (in ClCCl): 465 nm
Compound: CN1CCN(c2cccc(/C=C/c3ncc(-c4ccc(OCc5ccccc5)c(OCc5ccccc5)c4)o3)c2)CC1

Source: the Deep4Chem optical property database
